Source: PubChem BioAssay (NCI)
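Briefly, cells in 96-well plates were exposed to five compound concentrations for 48 h, and endpoints were estimated by linear interpolation. TGI is the concentration that stops growth completely.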

What was measured:
Assay in all cases: NCI tumour cell line growth inhibition, 48 h
SNB-75 CNS = test system: SNB-75 CNS
OVCAR-4 ovarian = test system: OVCAR-4 ovarian
KM12 colon = test system: KM12 colon
UO-31 renal = test system: UO-31 renal
SN12C renal = test system: SN12C renal
SK-MEL-28 melanoma = test system: SK-MEL-28 melanoma
SNB-78 CNS = test system: SNB-78 CNS
UACC-257 melanoma = test system: UACC-257 melanoma
MOLT-4 leukemia = test system: MOLT-4 leukemia
MALME-3M melanoma = test system: MALME-3M melanoma
A498 renal = test system: A498 renal
NCI-H226 lung = test system: NCI-H226 lung
HCT-116 colon = test system: HCT-116 colon
SR leukemia = test system: SR leukemia
SK-MEL-5 melanoma = test system: SK-MEL-5 melanoma
DLD-1 colon = test system: DLD-1 colon
DMS 273 small cell lung = test system: DMS 273 small cell lung
OVCAR-8 ovarian = test system: OVCAR-8 ovarian
LXFL 529 NSCLC = test system: LXFL 529 NSCLC
RPMI-8226 leukemia = test system: RPMI-8226 leukemia
SK-OV-3 ovarian = test system: SK-OV-3 ovarian
IGROV1 ovarian = test system: IGROV1 ovarian
CCRF-CEM leukemia = test system: CCRF-CEM leukemia
HT29 colon = test system: HT29 colon
A549 NSCLC = test system: A549 NSCLC
786-0 renal = test system: 786-0 renal
M14 melanoma = test system: M14 melanoma
SW-620 colon = test system: SW-620 colon
HL-60(TB) leukemia = test system: HL-60(TB) leukemia
DMS 114 small cell lung = test system: DMS 114 small cell lung
K-562 leukemia = test system: K-562 leukemia
SF-268 CNS = test system: SF-268 CNS
HOP-92 NSCLC = test system: HOP-92 NSCLC
NCI-H23 lung = test system: NCI-H23 lung
HOP-62 NSCLC = test system: HOP-62 NSCLC
COLO 205 colon = test system: COLO 205 colon
NCI-H522 lung = test system: NCI-H522 lung
SF-295 CNS = test system: SF-295 CNS
RXF-631 renal = test system: RXF-631 renal
SK-MEL-2 melanoma = test system: SK-MEL-2 melanoma
TK-10 renal = test system: TK-10 renal
SF-539 CNS = test system: SF-539 CNS
M19-MEL melanoma = test system: M19-MEL melanoma
UACC-62 melanoma = test system: UACC-62 melanoma
HCC-2998 colon = test system: HCC-2998 colon
OVCAR-3 ovarian = test system: OVCAR-3 ovarian
SNB-19 CNS = test system: SNB-19 CNS
CAKI-1 renal = test system: CAKI-1 renal

Measured: TGI

O=S1(=O)OCCOS(=O)(=O)C1Br
> 100 µM: all assays above
